Data on 19 compounds can be found in patent US20040048834A1, “Antitumoral compounds” (priority 2000, published 2004).

Holding throughout (format): cell-based
For one data set, the system named is A549. Put plainly: Cytotoxicity of spisulosine analogs, A549 (after Berjeron et al). The settings on record: methodology after Berjeron et al, NA=not active, read-out: Cytotoxicity IC50 A549.
For another data set, the system named is DU145. Put plainly: Cytotoxicity of spisulosine analogs, DU145 (after Berjeron et al). The settings on record: methodology after Berjeron et al, NA=not active, read-out: Cytotoxicity IC50 DU145.
For a further data set, the system named is MEL28. Put plainly: Cytotoxicity of spisulosine analogs, MEL28 (after Berjeron et al). Particulars: methodology after Berjeron et al, NA=not active, read-out: Cytotoxicity IC50 MEL28.
A further data set has as its system HT29. As to the kind of experiment: Cytotoxicity of spisulosine analogs, HT29 (after Berjeron et al). The settings on record: methodology after Berjeron et al, NA=not active, read-out: Cytotoxicity IC50 HT29.
Another data set has as its system P388. Put plainly: Cytotoxicity of spisulosine analogs, P388 (after Berjeron et al). Particulars: methodology after Berjeron et al, NA=not active, read-out: Cytotoxicity IC50 P388.

As usually defined, the pIC50 is the negative decadic logarithm of the IC50, by convention in mol/L.

pIC50: −log10 of the molar value. Structures can show the parent of a compound that is named as a salt. Where two headings read alike, the source gives them in different places.

As for `CCCCCCCCCCCC[C@@H](O)[C@H](C)N` [(2S,3R)-2-Amino-3-pentadecanol], the negative logarithm of the IC50 (pIC50) was 6.39 in the data set on A549 (Homo sapiens, A549, A549); 6.39 in the data set on DU145 (Homo sapiens, DU-145, DU145); 5.69 with MEL28 (Homo sapiens, SK-MEL-28, MEL28); 6.39 in the data set with HT29 (Homo sapiens, HT-29, HT29); 6.39 in the data set with P388 (Mus musculus, P388, P388).

For `CCCCCCCCCCCCCCC[C@@H](O)[C@@H](N)CC` [drawing 59, (3S,4R)-3-Amino-4-nonadecanol hydrochloride], the negative logarithm of the IC50 (pIC50) with A549 (A549, hydrochloride) is 8.53; in the data set with HT29 (HT29, hydrochloride) it was 8.53.

With `CCCCCCCCCCCCCCCC(O)C(N)CC` (centres unmarked) [drawing 79], the pIC50 in the data set with A549 (A549), in the data set on DU145 (DU145), in the data set on MEL28 (MEL28), with HT29 (HT29) and with P388 (P388) was 6.48 throughout.

`CCCCCCCCCCCCCCC[C@@H](O)[C@H](C)N` [drawing 47, (2S,3R)-2-Amino-3-octadecanol hydrochloride]: the pIC50 is 7.51 in the data set with A549 (A549, hydrochloride); 7.51 in the data set with DU145 (DU145, hydrochloride); 6.51 in the data set on MEL28 (MEL28, hydrochloride); 7.81 with HT29 (HT29, hydrochloride); 7.51 in the data set with P388 (P388, hydrochloride).

In the case of `CCCCCCCCCCCCCCC[C@@H](OC(=O)C(F)(F)F)[C@H](C)N`, the negative-log IC50 (pIC50) in the data set with A549 (A549) and in the data set with HT29 (HT29) was 7.69 throughout.

For the compound `CCCCCCCCCCCCCCC[C@H](O)[C@H](C)N` [(2S,3S)-2-Amino-3-octadecanol], the pIC50 with A549 (Homo sapiens, A549, A549) was 6.46; in the data set with DU145 (Homo sapiens, DU-145, DU145) it was 6.46; with MEL28 (Homo sapiens, SK-MEL-28, MEL28) it was 6.46; with HT29 (Homo sapiens, HT-29, HT29) it was 6.46; in the data set on P388 (Mus musculus, P388, P388) it was 6.46.

Take `CCCCCCCCCCCCCCC[C@@H](O)[C@@H](N)CCC` [drawing 65, (4S,5R)-4-Amino-5-eicosanol hydrochloride]: the negative logarithm of the IC50 (pIC50) is 7.54 with A549 (A549, hydrochloride) and 7.54 in the data set with HT29 (HT29, hydrochloride).

For `CCCCCCCCCCCCC[C@@H](O)[C@H](C)N` [drawing 42, (2S,3R)-2-Amin-3-hexadecanol hydrochloride], the pIC50 in the data set on A549 (A549, hydrochloride) is 8.47; in the data set with HT29 (HT29, hydrochloride), 8.47.

As for `CCCCCCCCCCCCCCCC(=O)[C@@H](N)CC` [drawing 106], the pIC50 is 7.52 in the data set with A549 (A549); 7.52 with DU145 (DU145); 6.52 in the data set on MEL28 (MEL28); 7.52 in the data set with HT29 (HT29); 7.52 with P388 (P388).

In the case of `CCCCCCCCCCCCCCC[C@@H](O)[C@@H](N)Cc1ccc(O)cc1` [drawing 69, (2S,3R)-2-Amino-1-(4′-hydroxyphenyl)-3-octadecanol], the negative logarithm of the IC50 (pIC50) in the data set with A549 (A549) and in the data set on HT29 (HT29) was 5.88 in each case.

Regarding `CCCCCCCCCCCCCC[C@@H](O)[C@@H](N)CC` [drawing 56, (3S,4R)-3-Amino-4-octadecanol], the pIC50 with A549 (A549) and in the data set with HT29 (HT29) was 8.46 in each case.

Take `CCCCCCCCCCCCCCC[C@H](O)[C@@H](C)N` [(2R,3S)-2-Amino-3-octadecanol]: the negative logarithm of the IC50 (pIC50) with A549 (Homo sapiens, A549, A549) is 6.46; with DU145 (Homo sapiens, DU-145, DU145), 6.46; in the data set with MEL28 (Homo sapiens, SK-MEL-28, MEL28), 6.46; in the data set with HT29 (Homo sapiens, HT-29, HT29), 6.46; in the data set with P388 (Mus musculus, P388, P388) it was 6.46.

On to `CCCCCCCCCCCCCCCC(=O)[C@@H](C)N`, for which the negative logarithm of the IC50 (pIC50) in the data set on A549 (A549) is 6.81; with DU145 (DU145) it was 6.81; in the data set with MEL28 (MEL28) it was 6.50; in the data set with HT29 (HT29), 6.81; in the data set with P388 (P388) it was 6.81.

As for `CCCCCCCCCCCCCCCC(=NO)C(C)N` (centres unmarked), the pIC50 with A549 (A549), in the data set with DU145 (DU145), in the data set with MEL28 (MEL28), in the data set on HT29 (HT29) and in the data set on P388 (P388) was 6.47 each time.

Regarding `CCCCCCCCCCCCCCCC[C@@H](O)[C@H](C)N` [drawing 37, (2S,3R)-2-Amino-3-nonadecanol], the pIC50 was 7.48 with A549 (A549); 7.48 with DU145 (Homo sapiens, DU-145, DU145); 7.48 in the data set on MEL28 (Homo sapiens, SK-MEL-28, MEL28); 7.48 in the data set with HT29 (HT29); 7.48 with P388 (Mus musculus, P388, P388).

With `CCCCCCCCCCCCCC[C@@H](O)[C@H](C)N` [drawing 44, (2S,3R)-2-Amino-3-heptadecanol], the pIC50 was 7.43 with A549 (Homo sapiens, A549, A549); 7.43 in the data set with DU145 (Homo sapiens, DU-145, DU145); 7.43 in the data set with MEL28 (Homo sapiens, SK-MEL-28, MEL28); 7.43 in the data set with HT29 (Homo sapiens, HT-29, HT29); 7.43 in the data set with P388 (Mus musculus, P388, P388).

For `CCCCCCCCCCCCCCCC[C@@H](O)[C@H](C)NS(C)(=O)=O`, the pIC50 in the data set on A549 (A549) and with HT29 (HT29) was 6.58 throughout.

In the case of `CCCCCCCCCCCCCCC[C@@H](O)[C@H](C)N` [drawing 46, Bis-((2S,3R)-2-ammonium-3-octadecanol) L-tartrate], the pIC50 was 7.56 with A549 (Homo sapiens, A549, A549); 7.56 in the data set on DU145 (Homo sapiens, DU-145, DU145); 7.56 with MEL28 (MEL28); 7.56 in the data set on HT29 (Homo sapiens, HT-29, HT29); 7.56 with P388 (Mus musculus, P388, P388).

As for `CCCCCCCCCCC[C@@H](O)[C@H](C)N` [(2S,3R)-2-Amino-3-tetradecanol], the pIC50 with A549 (Homo sapiens, A549, A549) is 5.66; in the data set on DU145 (Homo sapiens, DU-145, DU145), 5.66; with MEL28 (Homo sapiens, SK-MEL-28, MEL28), 5.66; in the data set with HT29 (Homo sapiens, HT-29, HT29), 6.36; in the data set with P388 (Mus musculus, P388, P388) it was 6.36.
